This data set deals with human red blood cells (hRBCs). The data set is described as follows: Hemolysis assay. Format: cell-based. As to conditions: red cells of human, 1 h. The method, then: The hemolysis assay was performed by using the method reported previously. Fresh human red blood cells (hRBCs) with anticoagulant (EDTA) were rinsed three times with a PBS by centrifugation at 800× g for 10 min and diluted with PBS. The compounds were serially diluted on a 96-well microtiter polystyrene plate, and hRBCs were added up to a final volume of 100 μL. The compound concentration ranged between 0.5 and 256 μg/mL and the final hRBCs concentration was 4% (v/v). Controls for zero (blank) and 100% hemolysis consisted of hRBCs suspended in PBS and 1% of Triton-X 100 (Carl Roth GmbH, Karlsruhe, Germany), respectively. The plate was incubated for 1 h at 37 °C and then centrifuged (800× g, 10 min, 4 °C). Subsequently, the supernatant was […] to new microtiter plates, and the absorbance at 540 nm was measured (Multiskan GO Microplate Spectrophotometer, Thermo Fisher Scientific, Vantaa, Finland). All experiments were conducted in triplicate. HC50 was calculated using an ic50.tk tool. The protocol of the study was approved by the local Bioethics Committee at the Medical University of Gdańsk (NKBBN/262/2019, approval date: 10 June 2019).

Where a SMILES comes first, the peptide text is derived from it. Bridges are numbered along the chain shown (N, C = ends). Roman numbers before positions name the chains, in order. Side-chain parts run from the residue outwards. [ ]: non-standard residue; d: D form. The star is where a group is joined. Myristoyl = CCCCCCCCCCCCCC(=O)*; Nle = CCCC[C@H](N)C(=O)O; Octanoyl = CCCCCCCC(=O)*

On to `CCCCCCCC(=O)N[C@@H](Cc1ccccc1)C(=O)N[C@@H](CCCNC(=N)N)C(=O)N[C@@H](CCCNC(=N)N)C(=O)NCCCC[C@H](NC(=O)[C@H](CCCNC(=N)N)NC(=O)[C@H](CCCNC(=N)N)NC(=O)[C@H](Cc1ccccc1)NC(=O)CCCCCCC)C(N)=O` [Compound B5] (Octanoyl-FRRK([Arg-Arg-Phe-Octanoyl])-NH2), for which the HC50 worked out at 181.38 ± 8.99 µg/mL.

Compound `CCCCCCCC(=O)N[C@@H](CCCNC(=N)N)C(=O)N[C@@H](CCCNC(=N)N)C(=O)N[C@@H](CSSC[C@H](NC(=O)[C@H](CCCNC(=N)N)NC(=O)[C@H](CCCNC(=N)N)NC(=O)CCCCCCC)C(N)=O)C(N)=O` [Compound C1] (I: Octanoyl-Arg-Arg-Cys-NH2 / II: Octanoyl-Arg-Arg-Cys-NH2; disulfide I:3-II:3) registered an HC50 greater than 256 µg/mL.

The compound `CCCCCCCCCCCCCC(=O)N[C@@H](CCCNC(=N)N)C(=O)N[C@@H](CCCNC(=N)N)C(=O)NCCCC[C@H](NC(=O)[C@H](CCCNC(=N)N)NC(=O)[C@H](CCCNC(=N)N)NC(=O)CCCCCCCCCCCCC)C(N)=O` [Compound B4] (Myristoyl-Arg-Arg-Lys([Arg-Arg-Myristoyl])-NH2) gave an HC50 of 44.12 ± 4.70 µg/mL.

In turn, `CCCCCCCC(=O)N[C@@H](CCCC)C(=O)N[C@@H](CCCNC(=N)N)C(=O)N[C@@H](CCCNC(=N)N)C(=O)N[C@@H](CSSC[C@H](NC(=O)[C@H](CCCNC(=N)N)NC(=O)[C@H](CCCNC(=N)N)NC(=O)[C@H](CCCC)NC(=O)CCCCCCC)C(N)=O)C(N)=O` [Compound C6] (I: Octanoyl-[Nle]RRC-NH2 / II: Octanoyl-[Nle]RRC-NH2; disulfide I:4-II:4) came in with an HC50 greater than 256 µg/mL.

Turning to `CCCCCCCC(=O)N[C@@H](CCCC)C(=O)N[C@@H](CCCNC(=N)N)C(=O)N[C@@H](CCCNC(=N)N)C(=O)NCCCC[C@H](NC(=O)[C@H](CCCNC(=N)N)NC(=O)[C@H](CCCNC(=N)N)NC(=O)[C@H](CCCC)NC(=O)CCCCCCC)C(N)=O` [Compound B6] (Octanoyl-[Nle]RRK([Arg-Arg-Nle-Octanoyl])-NH2), the HC50 is greater than 256 µg/mL.

`CCCCCCCC(=O)N[C@@H](CCCNC(=N)N)C(=O)N[C@@H](CCCNC(=N)N)C(=O)NCCCC[C@H](NC(=O)[C@H](CCCNC(=N)N)NC(=O)[C@H](CCCNC(=N)N)NC(=O)CCCCCCC)C(N)=O` [Compound B1] (Octanoyl-Arg-Arg-Lys([Arg-Arg-Octanoyl])-NH2) registered an HC50 greater than 256 µg/mL.

As to `CCCCCCCCCCCCCC(=O)N[C@@H](CCCNC(=N)N)C(=O)N[C@@H](CCCNC(=N)N)C(=O)N[C@@H](CSSC[C@H](NC(=O)[C@H](CCCNC(=N)N)NC(=O)[C@H](CCCNC(=N)N)NC(=O)CCCCCCCCCCCCC)C(N)=O)C(N)=O` [Compound C4] (I: Myristoyl-Arg-Arg-Cys-NH2 / II: Myristoyl-Arg-Arg-Cys-NH2; disulfide I:3-II:3), the HC50 is on record as 20.89 ± 1.06 µg/mL.

As a reminder, the HC50 is the concentration giving 50% haemolysis.

The values are drawn from article PMC8036666, “Biological and Physico-Chemical Characteristics of Arginine-Rich Peptide Gemini Surfactants with Lysine and Cystine Spacers” (International Journal of Molecular Sciences, 2021).
